Series [1] in a line: in vitro. The following applies: PAMPA, pH 7.4. The method, then: The reference compounds, well-permeable caffeine and low-permeable norfloxacin were obtained from Sigma-Aldrich (St. Louis, MO, USA). Used for this study, pre-coated PAMPA Plate System Gentest™ was provided by Corning (Tewksbury, MA, USA). The system consisted of 96-well receiver filter plate pre-coated with structured layers of phospholipids and a donor microplate. The assay was performed as described previously. […] After 5 h of incubation at RT° the UPLC-MS spectrometry (Waters ACQUITY™ TQD system with the TQ Detector, Waters, Milford, MA, USA) method was used to estimate the quantity of compounds that penetrated from donor to acceptor wells. The permeability coefficients (Pe, cm/s) were calculated using the formulas provided by Corning.
(In PAMPA a lipid-coated filter parts donor from acceptor wells.)

The subject of series [2] is laboratory animals. Details: method as in PMID 33261900. Particulars: laboratory animals ref 12; cited from earlier work.
Series [3] concerns mice fed high fat diet. Details: method as in PMID 15833055, PMID 15447739. The following applies: mice fed high fat diet ref 4, 16; cited from earlier work.
Series [4] has as its system female Wistar rats. The series can be described thus: Visceral illness via kaolin intake (pica behavior). The format is in vivo. The following applies: single i.p., 24 h; vs vehicle control. The protocol: The method was based on the works by Takeda et al. and Yamamoto et al. with minor modification. The experiment lasted for five days. In addition to free access to feed, animals had also free access to a white kaolin. For the first few days, the animals were accustomed to the presence of kaolin in their cages. […] Moreover, animals were weighed before the compounds administration and 24 h after.

The test system of series [5] is rat. The following applies: i.p., no reference given; cited from earlier work.

In series [1], `Cn1c(=O)c2c(ncn2C)n(C)c1=O` [CFN, caffeine] had an apparent permeability coefficient (Papp) at 5 h, 200 µM of 12.2 ± 0.94 ×10⁻⁶ cm/s.

As to `N#Cc1ccc(-c2ccc(OCCCN3CCN(c4ccncc4)CC3)cc2)cc1` [KSK-94], in series [2], the kcal intake entry is “reduced kcal intake”; the “plasma triglyceride and total cholesterol levels” value is “lowering plasma triglyceride and total cholesterol levels”; the weight gain result is listed as “strongly prevented weight gain”.

Take `CCn1cc(C(=O)O)c(=O)c2cc(F)c(N3CCNCC3)cc21` [NFX, norfloxacin]: the Papp at 5 h, 200 µM in series [1] amounted to 0.056 ± 0.01 ×10⁻⁶ cm/s.

As to `CN(C)[C@@H]1CCN(CCCOc2ccc(-c3ccc(C#N)cc3)cc2)C1` [Compound A-331440], in series [3], the body weight result is “caused weight loss”, the insulin tolerance entry is “normalized insulin tolerance” and the leptin levels result was “lowered leptin levels”.

`O=S(=O)([O-])[O-].[Cu+2]` [CuSO4, reference compound]: in series [4], the “calorie intake (pica model)” value is given as “reduced caloric intake” and the “water intake (pica model)” value is “drank less water”. The LD50 in series [5] is reported as 18 mg/kg.

A word on the Papp: it is a coefficient for how fast a substance crosses the barrier. Lower therefore signals poor permeation. In general, LD50 refers to the dose expected to kill half of the subjects tested.

Values taken from paper PMC8622623, “Histamine H3 Receptor Ligands—KSK-59 and KSK-73—Reduce Body Weight Gain in a Rat Model of Excessive Eating” (Pharmaceuticals, 2021).
